Experimental findings from patent US20240336611A1 (Insilico Medicine IP Limited, priority 2021, published 2024) are described below.

Data set [1] in a line: Metabolic stability in human liver microsomes. As to conditions: LM Clint (intrinsic clearance); 1 μM test compound, 0.5 mg protein/mL microsome, 37° C., up to 60 min. The data set is classed as in vitro ADME. In general terms: Liver microsomes are a subcellular fraction often used to study metabolism.
In data set [2] the target is T1, TNIK kinase [amino acid sequence (1-367), Invitrogen] (Homo sapiens, UniProt Q9UKE5).
T1 construct: purchased Invitrogen
Kind of data set: TNIK kinase inhibition assay (Z-lyte FRET-peptide). The data set is classed as biochemical. Conditions: 0.625 nM TNIK kinase, 2 μM Ser/Thr 7 peptide, 64 μM ATP, one hour at room temperature.

T1 sequence (Q9UKE5 1-367): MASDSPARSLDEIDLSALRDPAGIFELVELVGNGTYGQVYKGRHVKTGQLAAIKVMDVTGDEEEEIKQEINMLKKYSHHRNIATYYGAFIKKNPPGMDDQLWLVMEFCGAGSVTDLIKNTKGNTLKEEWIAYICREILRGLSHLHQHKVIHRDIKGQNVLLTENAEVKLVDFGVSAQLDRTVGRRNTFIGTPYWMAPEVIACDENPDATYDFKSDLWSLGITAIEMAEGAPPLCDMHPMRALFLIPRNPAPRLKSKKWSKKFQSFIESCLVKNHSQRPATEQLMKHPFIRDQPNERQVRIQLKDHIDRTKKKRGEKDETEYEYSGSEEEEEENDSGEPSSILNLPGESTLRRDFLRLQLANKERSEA

As usually defined, the IC50 is the midpoint of a concentration-inhibition curve. For the molecule `CC(C)n1cnc(-c2ccc(F)cc2)c1-c1nc(C(=O)Nc2ccc(N3C[C@H]4CC[C@@H](C3)N4C)cn2)c[nH]1` [Compound 24, 5′-(4-fluorophenyl)-3′-isopropyl-N-(5-((1R,5S)-8-methyl-3,8-diazabicyclo[3.2.1]octan-3-yl)pyridin-2-yl)-1H,3′H-[2,4′-biimidazole]-4-carboxamide], the “Human Liver Microsome (μM/min/mg)” value in data set [1] is recorded as “++ (10-100 μM/min/mg as ++)”. For the same molecule, the IC50 in data set [2] was 1 to 12 nM.

In the case of `CC(C)n1cnc(-c2ccc(F)cc2)c1-c1nc(C(=O)Nc2ccc(C3=C[C@H]4CC[C@@H](C3)N4C)cn2)cs1` [Compound 61, 2-(4-(4-fluorophenyl)-1-isopropyl-1H-imidazol-5-yl)-N-(5-((1R,5S)-8-methyl-8-azabicyclo[3.2.1]oct-2-en-3-yl)pyridin-2-yl)thiazole-4-carboxamide], the “Human Liver Microsome (μM/min/mg)” value in data set [1] is given as “++ (10-100 μM/min/mg as ++)”. The IC50 in data set [2] lay within 1 to 12 nM.
